Experimental data published in publication PMC8329197, “Compounds targeting OSBPL7 increase ABCA1-dependent cholesterol efflux preserving kidney function in two models of kidney disease” (Nature Communications, 2021).
Values joined by “and” are separate entries in the source; they are usually repeats but may differ in a detail not shown here. Equal values may be shown once.

How the values were obtained:
ABCA1 protein = assay: Cell fractionation: ABCA1 in plasma membrane and microsomal fractions of podocytes; assay type: cell-based, human; conditions: podocytes; Cpd A 5 µM, Cpd G 10 µM
Experimental: Lysates, or cell fractions were incubated in Laemmli buffer at 55 °C for 10 min under reducing conditions. A total of 30 μg of protein from cell lysates or one-third of the volume collected in cell fraction preparations was separated by SDS-PAGE in 4–20% gradient gels (Biorad) and proteins were then transferred to PVDF membranes. After blocking with 5% TBS-milk, membranes were probed with primary antibodies overnight at 4 °C. The following primary antibodies were used: mouse anti-ABCA1 (Abcam; 1:1000), rabbit anti-GAPDH antibody (Millipore; 1:10,000), mouse anti-actin (CP01, Millipore 1:10,000), anti-MEK, anti-ERp72, anti-V5 and anti-Na^+/K^+ ATPase (Cell Signaling; all 1:1000), and rabbit anti-OSBPL7 (Sigma; 1:1000). After washing, membranes were incubated with anti-rabbit or and anti-mouse IgG-HRP antibodies (Promega, 1:10,000). Signals were detected after incubation with Westernbright ECL HRP substrate (Advansta) and luminescence signals were captured with Azure C600 Gel Imaging workstation (Azure Biosystems Inc, USA) or X-ray films.
Differentiated podocytes were treated with compounds Cpd C (1 μM), Cpd A (5 μM), or Cpd G (10 μM) for 18 h, washed and then harvested in ice-cold PBS. Cells were centrifuged at 1000 × g for 5 min, the supernatant was carefully removed, and the pellet resuspended in hypotonic buffer (15 mM KCl, 1.5 mM MgCl2, 10 mM HEPES and 1 mM DTT) supplemented with a protease inhibitor cocktail (Roche). Cells were disrupted with a glass douncer, and sucrose was added to achieve final concentration of 227 mM. Cell lysates were centrifuged at 1000 × g for 30 min at 4 °C. The supernatant was then transferred to a new tube and centrifuged at 10,000 × g for 15 min at 4 °C. The pellet, containing the microsomal fraction was collected and the supernatant was transferred to a new tube and centrifuged at 100,000 × g for 1 h at 4 °C. The pelleted plasma membrane fraction was collected and the supernatant, containing the organelle-free cytosolic fraction, was concentrated in Vivaspin 500 filter columns. Western blot was performed using antibodies for ABCA1 and specific markers for each membrane fraction as described above. Na^+/K^+ ATPase was used to identify the plasma membrane fraction, ERp72 as a marker for the microsomal-enriched fraction, and MEK as the control for the non-membranous cytosolic fraction.

[1] = tested on: Adriamycin (ADR)-induced nephropathy in Balb/c mice; assay: ADR nephropathy: kidney cortex lipids (cholesterol ester, total cholesterol, triglycerides, Oil-red O); assay type: in vivo, mouse; conditions: ADR model; individual animals
Experimental: OCT embedded kidney cortex samples were cryosectioned at 4 μm thickness and stained with Oil-Red O-isopropanol solution (Electron Microscopy Science, PA) diluted 6:4 in water, and then counterstained with Hematoxylin Harris Hg Free (VWR, PA). Sections were then evaluated using a light microscope (Olympus BX 41, Tokyo, Japan).
Snap frozen kidney cortex samples were homogenized in 2 mM potassium phosphate buffer, pH 7, (10 µl buffer/mg tissue) using a glass douncer on ice. 100 μl of the homogenate were mixed thoroughly with 1 ml of hexane:isopropanol (3:2;v:v) per volume of tissue homogenate. The aqueous (pellet) and organic (supernatant) phases were separated by centrifugation at 12,000 × g for 5 min. Pellets (aqueous phase) were dried, reconstituted in 8 M urea, 0.1% SDS, 0.1 M NaOH, and total proteins were quantified by the BCA method (Thermofisher). The organic phase was dried by exposure to nitrogen. Lipids were then reconstituted in 100 µl isopropanol:NP-40 (9:1;v:v). Triglyceride content was assayed using a colorimetric kit according to the manufacturer’s instructions (Cayman Chemical USA). Total cholesterol and CE content were assayed using an enzymatic fluorometric method. For total cholesterol measurement, extracts were diluted 1:100 in assay buffer (100 mM potassium phosphate, 50 mM NaCl, 5 mM cholic acid, 0.1% Triton […], pH 7.4) containing cholesterol oxidase (1 U/ml), cholesterol esterase (1 U/ml), horseradish peroxidase (1 U/ml), and Amplex Red (75 µM). The reactions were incubated at 37 °C for 30 min in a black opaque 96-well plate (Greiner) and fluorescence was measured in a microplate reader (Spectramax i3X, Molecular Devices) at 530 nm excitation and 580 emission.
For CE determination, 150 µl of the assay buffer described above, supplemented with bovine liver catalase (45 U/ml) and cholesterol oxidase (1 U/ml), was added to 25 μl of sample and incubated overnight at 37 °C to deplete free cholesterol leaving only cholesterol esters. Then, 75 µl of cholesterol ester detection reagent (1 U/ml cholesterol oxidase, 4 U/ml cholesterol esterase, 24 U/ml horseradish peroxidase, 300 µM Amplex Red) was added. The reaction was incubated at 37 °C for 30 min and the fluorescence signal was measured as described above. Internal standards included samples containing 1 mM of cholesterol and 5 μM of cholesterol oleate in order to verify the completeness of the enzymatic decomposition of free cholesterol as well as assay sensitivity and specificity.

[2] = tested on: Adriamycin (ADR)-induced nephropathy in Balb/c mice; assay: Adriamycin-induced nephropathy, main study: albumin/creatinine ratio and body weight
[3] = tested on: Adriamycin (ADR)-induced nephropathy in Balb/c mice; assay: ADR nephropathy: WBC, hemoglobin, hematocrit, ALT, AST; assay type: in vivo, mouse; conditions: ADR-induced nephropathy
[4] = 28 days treatment, 25th quartile
[5] = 28 days treatment, 75th quartile
[6] = 28 days treatment, group maximum
[7] = 28 days treatment, group median
[8] = 28 days treatment, group minimum
[9] = 28 days treatment, individual mouse values

SMILES: O=C(N[C@@H]1CCCC[C@H]1O)c1ccc(OCC(F)(F)F)c(-c2ccc(Cl)c(Cl)c2)n1 [Cpd A]
- ABCA1 at the plasma membrane (ABCA1 protein): increased ABCA1 at the plasma membrane
- ABCA1 in microsomal fractions (ABCA1 protein): did not increase ABCA1 in microsomal fractions
- KIDNEY CORTEX TOTAL CHOLESTEROL [1]: 116.65 nmol Chol./mg protein and 64.31 nmol Chol./mg protein and 91.93 nmol Chol./mg protein and 226.3 nmol Chol./mg protein and 280.19 nmol Chol./mg protein and 194.83 nmol Chol./mg protein and 293.03 nmol Chol./mg protein and 87.04 nmol Chol./mg protein and 85.55 nmol Chol./mg protein and 75 nmol Chol./mg protein and 105.96 nmol Chol./mg protein
- KIDNEY CORTEX TRIGLYCERIDES [1]: 65.49 nmol Triglyceride /mg protein and 206.46 nmol Triglyceride /mg protein and 31.6 nmol Triglyceride /mg protein and 59.01 nmol Triglyceride /mg protein and 14.83 nmol Triglyceride /mg protein and 65.84 nmol Triglyceride /mg protein and 43.06 nmol Triglyceride /mg protein and 145.74 nmol Triglyceride /mg protein and 110.74 nmol Triglyceride /mg protein
- Effect on weight loss ([2]; 28 days after ADR): substantially reduced weight loss
- ACR, median ([2]; 28 days after ADR, Cpd A 30, Cpd G 100, Cpd C 10 mg/Kg, group median): 2.3 mg albumin/mg creatinine and 2.363 mg albumin/mg creatinine
- Weight (d28) ([2]; animal weight when therapy finished, single animals): 19 and 21 and 18 and 15 and 20
- Weight Change (as % of weight at day 0), Median ([2]; day 28 after ADR, Cpd A 30, Cpd G 100, Cpd C 10 mg/Kg): 0%
- Weight Change (as % of weight at day 0) ([2]; day 28 after ADR, Cpd A 30, Cpd G 100, Cpd C 10 mg/Kg, single animals): 0% and -5.3% and -4.5% and -6.3% and -25% and 5.6%
- ACR values (mg Albumin / mg Creatinine) ([2]; spot urine 28 days after ADR, oral daily Cpd A 30, Cpd G 100, Cpd C 10 mg/Kg, single animals): 0.242 mg Albumin / mg Creatinine and 6.27 mg Albumin / mg Creatinine and 20.39 mg Albumin / mg Creatinine and 14.37 mg Albumin / mg Creatinine and 0.707 mg Albumin / mg Creatinine and 11.834 mg Albumin / mg Creatinine and 0.631 mg Albumin / mg Creatinine and 2.363 mg Albumin / mg Creatinine and 0.33 mg Albumin / mg Creatinine and 3.08 mg Albumin / mg Creatinine and 0.093 mg Albumin / mg Creatinine
- Times lower ACR ([2]; vs ADR+V, 28 days, Cpd A 30, Cpd G 100 mg/kg/day): 8 times
- ALT, Median (IQR) [3]: 256 (90.3-625) U/L
- ALT, Range [3]: 88-766 U/L
- AST, Median (IQR) [3]: 326 (213-500) U/L
- AST, Range [3]: 200-685 U/L
- HTC, Median (IQR) [3]: 54 (50-56) %
- HTC, Range [3]: 47-62%
- Hgb, Median (IQR) [3]: 13.6 g/dL
- Hgb, Range [3]: 12.1 to 15.5 g/dL
- WBC, Range [3]: 3.7-7.0 x103cells/µL
- ALT, QR(25) [3, 4]: 130.75 U/L
- AST, QR(25) [3, 4]: 232.75 U/L
- HTC, QR(25) [3, 4]: 51.25%
- Hgb, QR(25) [3, 4]: 13.1 g/dL
- WBC, QR(25) [3, 4]: 3.925 x 10^3 cells/ul
- ALT, QR(75) [3, 5]: 499.25 U/L
- AST, QR(75) [3, 5]: 421.5 U/L
- HTC, QR(75) [3, 5]: 55.5%
- Hgb, QR(75) [3, 5]: 13.9 g/dL
- WBC, QR(75) [3, 5]: 7.375 x 10^3 cells/ul
- ALT, Max [3, 6]: 766 U/L
- AST, Max [3, 6]: 685 U/L
- HTC, Max [3, 6]: 62%
- Hgb, Max [3, 6]: 15.5 g/dL
- WBC, Max [3, 6]: 8.2 x 10^3 cells/ul
- ALT, Median [3, 7]: 256.5 U/L
- AST, Median [3, 7]: 326 U/L
- HTC, Median [3, 7]: 54%
- Hgb, Median [3, 7]: 13.6 g/dL
- WBC, Median [3, 7]: 5.5 x 10^3 cells/ul
- ALT, Min [3, 8]: 88 U/L
- AST, Min [3, 8]: 200 U/L
- HTC, Min [3, 8]: 47%
- Hgb, Min [3, 8]: 12.1 g/dL
- WBC, Min [3, 8]: 3.7 x 10^3 cells/ul
- Alanine Aminotransferase (ALT) [3, 9]: 766 U/dL and 263 U/dL and 250 U/dL and 88 U/dL and 91 U/dL and 578 U/dL
- Aspartate Aminotransferase (AST) [3, 9]: 685 U/dL and 372 U/dL and 280 U/dL and 200 U/dL and 217 U/dL and 438 U/dL
- Hematocrit HTC [3, 9]: 58% and 54% and 62% and 47% and 56% and 52% and 48% and 51%
- White Blood Cells WBC [3, 9]: 7.7 x 10^3 cells/ul and 8.2 x 10^3 cells/ul and 4.7 x 10^3 cells/ul and 3.8 x 10^3 cells/ul and 4.3 x 10^3 cells/ul and 3.7 x 10^3 cells/ul and 7 x 10^3 cells/ul and 6.3 x 10^3 cells/ul and 7.5 x 10^3 cells/ul
